Measured values as given in US7579005B2, “Process for recombinant expression and purification of antimicrobial peptides using periplasmic targeting signals as precipitable hydrophobic tags” (E. I. du Pont de Nemours and Company, priority 2005, dated 2009).
Residues, ends and D or L forms follow the SMILES beside them.

Assays:
E. coli expression host = test: Growth of E. coli host cells expressing the fusion proteins (shake flask studies); type: cell-based; conditions: tryptophan induction
Experimental: Single colonies of E. coli containing pLH117 or pLH119 were grown in Rich Medium overnight at 30° C. at 250 rpm. A fresh culture was started the following day using 10% of the overnight growth diluted in Induction media and grown to an OD550 of 0.8. Induction media had no tryptophan (1×M9 salts, 0.2% casamino acids, 0.5% glucose, 1 mM MgCl2, and 100 ug/ml ampicillin). To facilitate induction, tryptophan was added for a final concentration of 100 μg/ml and flasks were incubated at 37° C. with shaking at 300 rpm. Samples were taken pre-induction and at 4, 8, and 12 hr post induction. Cell pellets were collected by centrifugation and analyzed for protein production.
Single colonies of E. coli containing pLH121 or pLH122 were grown in Rich Medium overnight at 30° C. at 250 rpm. A fresh culture was started the following day using 10% of the overnight growth in Induction medium and grown to an OD550 of 1.0 at 37°. To facilitate induction, tryptophan was added for a final concentration of 100 μg/ml. Samples were taken pre-induction and at 5 hr post induction. Cell pellets were collected by centrifugation and analyzed for protein production.

[1] = Effect of pH on solubility of OmpAPerSD and PG1; type: physicochemical; conditions: chemically synthesized samples, pH 1 to 12, 15 minutes at room temperature, supernatant by BCA total protein; FIG. 6
Experimental: Stock solutions of chemically synthesized samples of OmpAPerSD and PG1 were made in 0.1N NaOH. The pH of each sample was adjusted by the addition of 0.2 M sodium phosphate buffer or 0.1N HCl. Finally, water was added to make the final volume of each sample the same and the samples were mixed by vortexing. After 15 minutes at room temperature all samples were centrifuged at 13,000×g in a micro-centrifuge. The supernatants were carefully separated from the insoluble precipitates and analyzed for protein by the BCA total protein method. Protein determinations were made using standard solutions of synthetic OmpAPerSD and PG1, respectively, in 0.1N NaOH. […] The difference in pH solubility of OmpAPerSD and PG1 peptides, with maximal difference at low pH, lends to their ready separation by centrifugation or filtration.

| Compound | growth of cells expressing the fusion protein versus control cells containing only pLEX (E. coli expression host) | solubility over a range of pH [1] |
| --- | --- | --- |
| OmpA targeting signal sequence-16KGLG1-6His: fusion protein of OmpA periplasmic targeting signal, 16KGLG1 and 6His tag, expressed from pLH119 (MKKTAIAIAVALAGFATVAQAKGLKKLLKGLKKLLKLHHHHHH; OmpA PerS-G1-6His fusion protein) | grew at similar rates as control cells | – |
| CC[C@H](C)[C@H](NC(=O)[C@H](C)NC(=O)[C@@H](NC(=O)[C@H](C)NC(=O)[C@@H](NC(=O)[C@H](CCCCN)NC(=O)[C@H](CCCCN)NC(=O)[C@@H](N)CCSC)[C@@H](C)O)[C@@H](C)CC)C(=O)N[C@@H](C)C(=O)N[C@H](C(=O)N[C@@H](C)C(=O)N[C@@H](CC(C)C)C(=O)N[C@@H](C)C(=O)NCC(=O)N[C@@H](Cc1ccccc1)C(=O)N[C@@H](C)C(=O)N[C@H](C(=O)N[C@H](C(=O)N[C@@H](C)C(=O)N[C@@H](CCC(N)=O)C(=O)N[C@@H](C)C(=O)N[C@@H](CC(=O)O)C(=O)O)C(C)C)[C@@H](C)O)C(C)C [OmpAPerSD] (H-MKKTAIAIAVALAGFATVAQAD-OH; N-terminus and C-terminus assumed) | – | increases with increasing pH |
| CC(C)C[C@H](NC(=O)[C@H](CCCCN)NC(=O)[C@H](CC(C)C)NC(=O)[C@H](CC(C)C)NC(=O)[C@H](CCCCN)NC(=O)[C@H](CCCCN)NC(=O)[C@H](CC(C)C)NC(=O)CNC(=O)[C@H](CCCCN)NC(=O)[C@H](CC(C)C)NC(=O)[C@H](CC(C)C)NC(=O)[C@H](CCCCN)NC(=O)[C@H](CCCCN)NC(=O)[C@H](CC(C)C)NC(=O)CNC(=O)[C@H](CCCCN)NC(=O)[C@@H]1CCCN1)C(=O)O [P16KGLG1] (H-PKGLKKLLKGLKKLLKL-OH; N-terminus and C-terminus assumed) | – | does not appear to be pH dependent |
